Here are results for four compounds from patent US9790253B2, “OSW-1 analogs and conjugates, and uses thereof” (priority 2011, dated 2017).

As a reminder, the Kd is the constant that tells how readily two partners part at equilibrium.

One series deals with CHO-K1 cells. The series can be described thus: Sphingomyelin biosynthesis, [3H]-serine pulse-labeling, CHO-K1. The class given is cell-based. As to the method:
(§1) Sphingomyelin is biosynthesized from ceramide at the Golgi apparatus. Ceramide is primarily transported from the ER to the Golgi by ceramide transport protein (CERT), and the transport activity of CERT is both OSBP1- and VAP-A dependent. […] To determine whether the ORPphilins affect sphingomyelin synthesis, pulse-labeling with [^3H]-serine was performed in CHO-K1 and HCT-116 cells and the amount of tritium incorporated into sphingomyelin and other lipids then measured. Cells were treated with vehicle or compound for 6 h, and in the last 2 h the cells were pulsed with 10 μCi [^3H]-serine. Lipids were extracted and isolated by TLC, and label incorporation into sphingomyelin was measured by scintillation counting.

For series [1], the target named is OSBP (oxysterol-binding protein) (Homo sapiens, UniProt P22059). As to conditions: cited from earlier work.
Series [2] concerns HCT-116 p21^+/+ (wt) cells. The series can be described thus: Growth inhibition (cell viability assay) of HCT-116 p21+/+ cells. As to conditions: for GI50: HCT-116 p21+/+. As to the method: (§2) Cell viability assay. Cells were plated into 96-well plates in 75 μL of media. After 24 h, a time-zero plate was produced by adding 25 μL of media and 20 μL of CellTiter-Blue® (Promega) to the wells, followed by incubation at 37° C. for 90 min. Fluorescence (544 nm excitation; 590 nm emission) was detected using a SPECTRAmax® Gemini XS to establish cell viability at time of dosing. Then, compounds were serially diluted in media and delivered to the cells as 4× solutions in 25 μL of media. At either 48 h or 72 h, CellTiter-Blue® was added and the fluorescence was recorded as described above.
(§3) Tasdemir et al. (2002) J Nat Prod 65:210-4. GI50-values of the compounds were determined in HCT-116 p21^+/+ (wt) and p21^−/− cells after 48 h using a resazurin redox dye to measure cell viability.
(§4) Methods are described above in the General Methods section.

In another series the test system is HCT-116 p21^−/− cells. The series can be described thus: cells. To be noted: HCT-116 p21-/-. As to the method: as §2, §3, §4
In the next series the test system is A549 cells. The series can be described thus: cells. The class given is cell-based, human. As to conditions: A549 cells, 48 h; read-out: GI50 (nM) 48 h. From the text: Methods are essentially as described above in the General Methods section in connection with assays using HCT-116 cells.
The next series deals with HCT-116 cells. The series is described as follows: [3H]-serine pulse-labeling, HCT-116. The class given is cell-based, human. To be noted: range of concentrations. As to the method:
as §1

The subject of series [3] is OSBP1 localization in A549 cells. The series is described as follows: OSBP1 localization by immunofluorescence microscopy, A549. The class given is cell-based, human. As to the method: Immunofluorescence microscopy. HCT-116 or A549 (adenocarcinomic human alveolar basal epithelial) cells were plated on coverslips in 6-well plates. After 72 h, the culture media was removed and replaced with media containing either compound or vehicle control. At the indicated time-points, the cells were fixed for 10 min using 3.7% formaldehyde in PBS. The coverslips were washed with PBS and permeabilized for 5 min with 0.5% Triton X-100 in PBS. Following PBS washing, the coverslips were blocked for 30 min using Image-iT™ FX (Invitrogen), washed with PBS, and then blocked for 30 min at room temperature (RT) with 1% BSA in PBS (BSA/PBS). The coverslips were then incubated overnight at 4° C. with a primary antibody solution in BSA/PBS. The coverslips were washed with BSA/PBS and incubated for 60 min at RT with Alexa Fluor®-conjugated secondary antibodies (Invitrogen) in BSA/PBS, with the final 30 min including incubation with Hoescht 33258. The coverslips were then washed sequentially with BSA/PBS, PBS, and water and finally mounted on microscope slides using Aqua Poly/Mount (Polysciences Inc.). Imaging data was acquired using Zeiss LSM 510 META scanning confocal microscope.
Perturbations of OSBP1 localization by 1, 2, and 4b in A549 cells were also observed.

The test system of series [4] is CERT protein levels in HCT-116 cells or A549 cells. The series is described as follows: CERT protein levels. The class given is cell-based, human. To be noted: high dose (GI90). As to the method: Suppression of CERT expression is reported to cause a significant reduction in basal SM biosynthesis. Therefore, 1 and 2 were tested for their ability to induce a reduction in CERT levels, akin to the effects of 1 and 2 on OSBP1 levels.

In another series the test system is CHO-7 cells. The series is described as follows: Antiproliferative activity in CHO-7 cells, lipoprotein-deficient media. The class given is cell-based. From the text:
FIG. 4B is a bar graph depicting how removal of lipoproteins from the growth medium sensitizes CHO-7 cells to 25-OHC but not 1, 2, or 4a. Mean±s.d. of two individual experiments. Bref A, brefeldin A.
Insig is a chief regulator of SREBP-dependent cholesterol homeostasis, and 25-OHC exerts much of its ability to inhibit cholesterol biosynthesis through its binding to Insig. The possibility that suppression of the antiproliferative activity of the ORPphilins by 25-OHC could be due to displacement of these compounds from NPC1 or Insig was considered. […] In addition, the antiproliferative activity of 1-4a was evaluated in the CHO-7 cell line, which is a cell line adapted to grow in lipoprotein-deficient media. In lipoprotein-deficient media, CHO-7 cells are dependent on Insig-mediated cholesterol biosynthesis for survival, and are therefore sensitive to 25-OHC binding to Insig. Unlike 25-OHC, the antiproliferative activity of 1, 2, and 4a in CHO-7 cells was not enhanced in lipoprotein-deficient media.

The test system of the next series is NCI-60. To be noted: read-out: average GI50 against the NCI-60; cited from earlier work.
A further series concerns P388 tumor cells. To be noted: single i.p. treatment of 0.01 mg/kg; cited from earlier work.
The subject of the next series is HL-60. To be noted: cited from earlier work.
A further series has as its system normal lymphocytes. To be noted: cited from earlier work.
The test system of another series is U87-MG. To be noted: cited from earlier work.
The next series deals with normal astrocytes. As to conditions: cited from earlier work.
Series [5] concerns CLL (chronic lymphocytic leukemia) cells taken from patients. To be noted: read-out: GI50 fludarabine-refractory CLL cells; cited from earlier work.
For series [6], the system named is glioblastoma and leukemia cells. As to conditions: cited from earlier work.
A further series has as its system tumor xenograft. To be noted: i.p. 9.3 mg/kg (Q2Dx4); cited from earlier work.

Read-outs that look alike come from different tables or passages of the source.

Chain of OSBP (oxysterol-binding protein) (P22059 whole entry, species assumed): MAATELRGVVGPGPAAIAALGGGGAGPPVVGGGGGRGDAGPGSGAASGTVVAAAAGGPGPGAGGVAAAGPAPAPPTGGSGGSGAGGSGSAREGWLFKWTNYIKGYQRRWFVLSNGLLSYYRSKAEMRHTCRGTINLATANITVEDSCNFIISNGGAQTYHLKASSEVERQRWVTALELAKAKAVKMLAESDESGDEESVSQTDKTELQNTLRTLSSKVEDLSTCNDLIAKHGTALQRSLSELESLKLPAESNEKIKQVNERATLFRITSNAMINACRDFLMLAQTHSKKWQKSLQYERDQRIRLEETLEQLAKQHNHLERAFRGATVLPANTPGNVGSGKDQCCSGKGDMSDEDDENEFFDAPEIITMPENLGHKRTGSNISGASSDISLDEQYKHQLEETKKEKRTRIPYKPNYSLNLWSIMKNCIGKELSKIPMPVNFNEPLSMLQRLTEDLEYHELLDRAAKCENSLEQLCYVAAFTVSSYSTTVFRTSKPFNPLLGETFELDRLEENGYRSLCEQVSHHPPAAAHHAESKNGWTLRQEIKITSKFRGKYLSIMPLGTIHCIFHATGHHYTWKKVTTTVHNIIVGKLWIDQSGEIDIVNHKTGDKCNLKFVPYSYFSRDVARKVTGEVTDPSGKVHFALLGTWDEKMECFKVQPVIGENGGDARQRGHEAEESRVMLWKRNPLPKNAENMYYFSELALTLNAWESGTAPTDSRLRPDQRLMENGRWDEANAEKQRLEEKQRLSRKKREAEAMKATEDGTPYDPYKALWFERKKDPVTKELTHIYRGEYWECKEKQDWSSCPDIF

For the compound `C[C@H](CCCC(C)(C)O)[C@H]1CC[C@H]2[C@@H]3CC=C4C[C@@H](O)CC[C@]4(C)[C@H]3CC[C@]12C` [Compound 25-OHC, 25-hydroxycholesterol], in the series with CHO-K1 cells (5 μM, 6 h), the “increase in the biosynthesis of sphingomyelin (SM)” value is recorded as “ca. 4 fold”. The “SM biosynthesis at GI90 dose” value in the series with CHO-K1 cells (15 μM) is listed as “robust stimulation”. Besides, the dissociation constant (Kd) in [1] is 37 nM.
Turning to `COc1ccc(C(=O)O[C@H]2[C@H](O[C@@H]3[C@@H](OC(C)=O)[C@H](O[C@H]4C[C@H]5[C@@H]6CC=C7C[C@@H](O)CC[C@]7(C)[C@H]6CC[C@]5(C)[C@@]4(O)[C@H](C)C(=O)CCC(C)C)OC[C@@H]3O)OC[C@@H](O)[C@@H]2O)cc1` [OSW-1], the GI50 in series [2] (read-out: GI50 (nM) 48 h p21^+/+, 48 h) is 28 nM; in series [2] (read-out: GI50 (nM) 72 h p21^+/+, 72 h), 1.6 ± 0.6 nM; in the series on HCT-116 p21^−/− cells (read-out: GI50 (nM) 48 h p21^−/−, 48 h), 0.2 ± 0.03 nM; in the series with HCT-116 p21^−/− cells (read-out: GI50 (nM) 72 h p21^−/−, 72 h), 0.04 nM; in the series with A549 cells, 0.5 ± 0.24 nM; in the series on NCI-60, 0.78 nM. Further, the GI50 in the series with HL-60 was 0.04 nM; in the series on normal lymphocytes it was 1.73 nM; with U87-MG it was 0.047 nM; with normal astrocytes, 7.13 nM; in [5] it was 0.3 nM. Moreover, in the series on HCT-116 cells, the ceramide labeling result was “no effect”. Further, in series [3], the OSBP1 localization entry is recorded as “induced dispersal or vesiculation of OSBP1”. The “effect on CERT protein levels” value in series [4] is on record as “did not affect”. For the same compound, the “antiproliferative activity in lipoprotein-deficient media” value (“antiproliferative activity” below) in the series on CHO-7 cells was “not enhanced”. For the same compound, the increased life span in the series on P388 tumor cells is given as 59%. The “times more active in leukemia cells versus normal lymphocytes” value in the series with HL-60 is on record as 40 times. Also, in the series with U87-MG, the “selectivity, malignant brain tumor cells versus normal astrocytes” value is recorded as 150 fold. For the same compound, in series [6], the “fold more cytotoxic toward glioblastoma and leukemia cells than non-transformed astrocytes and lymphocytes” value is listed as 30-150 fold.
Take `C[C@@H]1[C@]2(O[C@H]3C=C4[C@@H]5CC[C@H]6Cc7nc8c(nc7C[C@]6(C)[C@H]5C[C@@H](O)[C@]4(C)[C@]31O)C[C@@H]1CC[C@H]3C4=CC[C@@H]5[C@H](C)[C@@]6(OC[C@]45C(=O)C[C@@H]3[C@@]1(C)C8)OC(C)(C)C[C@H]6O)O[C@](C)(CO)C[C@H]2O` [cephalostatin 1, Cephalostatin 1]: the OSBP1 localization result in [3] is listed as “induced dispersal or vesiculation of OSBP1”. For the same compound, in series [4], the “effect on CERT protein levels” value is “did not affect”. Also, the “antiproliferative activity” value in the series on CHO-7 cells is “not enhanced”.
Consider schweinfurthin A, for which the “fold less cytotoxic than the other ORPphilins” value in [2] was 100-300 fold. Further, the “antiproliferative activity” value in the series with CHO-7 cells is “not enhanced”. Besides, the GI50 in the series with NCI-60 was 360 nM. For the same compound, in the series on tumor xenograft, the toxicity entry is on record as “without overt toxicity” and the tumor volume entry is given as “reduction in tumor volume compared to vehicle-treated controls”.
